In assay [1] the target is T1, Adenosylhomocysteinase (Homo sapiens, UniProt P23526). The assay can be described thus: Inhibition of S-adenosyl-L-homocysteine hydrolase, inactivation rate constant.
Target sequence in this assay (P23526 whole entry): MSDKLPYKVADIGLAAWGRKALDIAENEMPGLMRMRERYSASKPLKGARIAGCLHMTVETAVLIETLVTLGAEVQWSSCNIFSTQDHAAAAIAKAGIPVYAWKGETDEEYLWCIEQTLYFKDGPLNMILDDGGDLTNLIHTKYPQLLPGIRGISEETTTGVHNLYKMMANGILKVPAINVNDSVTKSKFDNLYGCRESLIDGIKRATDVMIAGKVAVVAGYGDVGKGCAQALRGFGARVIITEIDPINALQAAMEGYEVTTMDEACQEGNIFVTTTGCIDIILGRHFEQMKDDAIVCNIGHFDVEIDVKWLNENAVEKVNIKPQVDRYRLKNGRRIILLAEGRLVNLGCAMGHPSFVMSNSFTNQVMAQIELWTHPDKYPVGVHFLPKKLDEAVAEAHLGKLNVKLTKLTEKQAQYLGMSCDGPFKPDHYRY
In assay [2] the target is T1, Adenosylhomocysteinase.
Target sequence in this assay (P23526 2-432 limits assumed): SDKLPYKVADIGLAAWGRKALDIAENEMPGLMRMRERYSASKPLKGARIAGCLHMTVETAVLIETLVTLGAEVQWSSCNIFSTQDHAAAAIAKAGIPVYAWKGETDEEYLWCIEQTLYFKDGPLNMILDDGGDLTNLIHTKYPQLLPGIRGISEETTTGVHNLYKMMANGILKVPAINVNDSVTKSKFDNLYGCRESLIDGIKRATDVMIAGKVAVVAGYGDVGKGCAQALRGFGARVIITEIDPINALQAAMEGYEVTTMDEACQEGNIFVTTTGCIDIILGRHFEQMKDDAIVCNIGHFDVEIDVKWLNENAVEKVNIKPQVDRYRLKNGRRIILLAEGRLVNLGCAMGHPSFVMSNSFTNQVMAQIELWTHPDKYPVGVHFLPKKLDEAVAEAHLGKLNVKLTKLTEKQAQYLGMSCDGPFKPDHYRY
Description: Inhibition of S-adenosyl-L-homocysteine hydrolase, dissociation constant.

`Nc1ncnc2c1ncn2C1O[C@H](C(=O)OCCCl)[C@@H](O)[C@H]1O` (stereo partly drawn) had a Ki on Adenosylhomocysteinase [1] of 320 nM. In addition, the K2 on Adenosylhomocysteinase [2] came to 0.35 min⁻¹.

For the compound `Nc1ncnc2c1ncn2C1O[C@H](C(=O)Nc2ccccc2)[C@@H](O)[C@H]1O` (stereo partly drawn), the Ki at Adenosylhomocysteinase [1] was 48500 nM. The same compound registered a K2 on Adenosylhomocysteinase [2] of 0.028 min⁻¹.

On to `COC(=O)[C@H]1O[C@@H](n2cnc3c(N)ncnc32)[C@H](O)[C@@H]1O`, for which the Ki on Adenosylhomocysteinase [1] is 1700 nM. The compound also gave a K2 on Adenosylhomocysteinase [2] of 0.78 min⁻¹.

As for `CCCCOC(=O)[C@H]1OC(n2cnc3c(N)ncnc32)[C@H](O)[C@@H]1O` (stereo partly drawn), on Adenosylhomocysteinase [1], the Ki was found to be 710 nM. The same compound displayed a K2 at Adenosylhomocysteinase [2] of 0.11 min⁻¹.

As to `NC(=O)[C@H]1OC(n2cnc3c(N)ncnc32)[C@H](O)[C@@H]1O` (stereo partly drawn), the Ki at Adenosylhomocysteinase [1] is 2600 nM. Further, the K2 on Adenosylhomocysteinase [2] was determined as 0.1 min⁻¹.

On to `Nc1ncnc2c1ncn2C1O[C@H](C(=O)OCc2ccccc2)[C@@H](O)[C@H]1O` (stereo partly drawn), for which the Ki at Adenosylhomocysteinase [1] was determined as 360 nM. Further, on Adenosylhomocysteinase [2], the K2 came to 0.017 min⁻¹.

At Adenosylhomocysteinase [1], `CC(C)COC(=O)[C@H]1OC(n2cnc3c(N)ncnc32)[C@H](O)[C@@H]1O` (stereo partly drawn) had a Ki of 570 nM. The compound further came in with a K2 on Adenosylhomocysteinase [2] of 0.077 min⁻¹.

The compound `Nc1ncnc2c1ncn2[C@@H]1O[C@H](C(=O)O)[C@@H](O)[C@H]1O` [5'-CARBOXY ADENOSINE] yielded a Ki at Adenosylhomocysteinase [1] of 410 nM. The compound further had a K2 at Adenosylhomocysteinase [2] of 0.045 min⁻¹.

With `CCN(CC)C(=O)[C@H]1OC(n2cnc3c(N)ncnc32)[C@H](O)[C@@H]1O` (stereo partly drawn), the Ki at Adenosylhomocysteinase [1] came out at 570 nM. Besides, the K2 at Adenosylhomocysteinase [2] worked out at 0.05 min⁻¹.

In turn, `Nc1ncnc2c1ncn2C1O[C@H](C(=O)NCc2ccccc2)[C@@H](O)[C@H]1O` (stereo partly drawn) had a Ki on Adenosylhomocysteinase [1] of 43400 nM. On Adenosylhomocysteinase [2], this compound yielded a K2 of 0.03 min⁻¹.

Turning to `CC(C)OC(=O)[C@H]1OC(n2cnc3c(N)ncnc32)[C@H](O)[C@@H]1O` (stereo partly drawn), the Ki on Adenosylhomocysteinase [1] was found to be 770 nM. In addition, at Adenosylhomocysteinase [2], the K2 is 0.064 min⁻¹.

At Adenosylhomocysteinase [1], `Nc1ncnc2c1ncn2[C@@H]1O[C@H](C=O)[C@@H](O)[C@H]1O` came in with a Ki of 39 nM. Moreover, at Adenosylhomocysteinase [2], the K2 turned out to be 0.65 min⁻¹.

As for `CCCCNC(=O)[C@H]1OC(n2cnc3c(N)ncnc32)[C@H](O)[C@@H]1O` (stereo partly drawn), the Ki on Adenosylhomocysteinase [1] worked out at 19800 nM. This compound also registered a K2 at Adenosylhomocysteinase [2] of 0.03 min⁻¹.

As for `CNC(=O)[C@H]1O[C@@H](n2cnc3c(N)ncnc32)[C@H](O)[C@@H]1O`, the Ki on Adenosylhomocysteinase [1] stood at 1930 nM. The compound further showed a K2 at Adenosylhomocysteinase [2] of 0.095 min⁻¹.
